Where two headings read alike, the source gives them in different places.
Tests used:
[1] = tested on: 129 Sv/J autosomal Alport mice; type: in vivo
Experimental: Immunofluorescence microscopy. Fresh frozen kidneys were sectioned at 8-μm and acetone fixed. Sections were incubated overnight at 4° C. in primary antibody solution. The dual stain consisting of rat anti-mouse Laminin-α2 antibody (Sigma-Aldrich, St. Louis, Mo.) at 1:200 and rabbit anti-mouse phospho-FAK 397 antibody at 1:25 as well as the dual stain of goat anti-mouse Integrin α8 antibody (R & D Systems, Minneapolis, Minn.) at 1:1000 and rabbit anti-mouse Laminin-5 antibody, at 1:1000 were diluted in 0.3% PBST+5% FBS. Rabbit anti-mouse Fibronectin antibody at 1:300 and rat anti-mouse CD11b antibody at 1:100 were diluted in 7% Milk. Slides were rinsed with 1×PBS and incubated with the appropriate Alexa Fluor donkey secondary antibodies at 1:300 for 1 hour at room temperature. They were then rinsed again with 1×PBS and mounted with Vectashield Mounting Medium with DAPI (Vector, Burlingame, Calif.). The dual stain of mouse-anti rat Laminin α1 antibody at 1:300 and rabbit anti-mouse phospho-FAK 397 antibody at 1:25 were diluted in 0.3% PBST+5% NGS and incubated overnight at 4° C. Slides were rinsed with 1×PBS and incubated with the appropriate Alexa Fluor goat secondary antibodies at 1:300 for 1 hour at room temperature. They were then rinsed again with 1×PBS and mounted with Vectashield Mounting Medium with DAPI.
Real time qRT-PCR. Total RNA was reverse transcribed using […]® III (Invitrogen, Life Technologies, Grand Island, N.Y.) with Oligo(dT)20 Primer (Invitrogen). The real time PCR was carried out using TAQMAN® Gene Expression Master Mix (Applied Biosystems, Life Technologies, Grand Island, N.Y.), and quantified using STEPONEPLUS™ Real-Time PCR System (Applied Biosystems). Samples were normalized to Mouse GAPDH Endogenous Control VIC® Probe (Applied Biosystems catalogue #4352339E) which was run alongside MMP-9 (Catalog #4331182, ID# Mm00442991_m1), MMP-10 (Catalog #4331182, ID# Mm00444630_m1), MMP-12 (Catalog #4331182, ID# Mm00500554_m1), IL-6 (Catalog #4331182, ID# Mm00446190_m1), NFKbia (Catalog #4331182, ID# Mm00477798_m1), and FAK (Catalog #4331182, ID# Mm00433209_m1) TAQMAN® Gene Expression Assay Probes (Applied Biosystems). Samples were run in triplicate with a final reaction volume of 20 ul with the following cycling parameters: 50° C. for 2 min, 95° C. for 10 min, followed by 40 cycles of a two-step PCR consisting of 95° C. for 15 s and 60° C. for 1 min. Relative changes in gene expression were determined by calculating the fold change using the comparative CT method of 2^−ΔΔCT. Data are expressed as the mean with standard deviation for at least four independent RNA samples per data point.
Treatment of mice with TAE226. Four Col 4A3 knockout mice from 129 Sv/J background were given 50 mg/Kg TAE226 (ChemScene, LLC Monmouth Junction, N.J.) 1× daily by gavage needle starting at two weeks of age until seven weeks old. The TAE226 was diluted in a 0.5% carboxy methyl cellulose suspension. Three control Col 4a3 knockout mice of the same age were given 0.5% CMC suspension alone and served as controls.
Albumin and creatinine assays. Urine was collected weekly and albumin concentrations were analyzed as instructed using a mouse albumin ELISA kit #MSAKT from Molecular Innovations (Novi, Mich.). Albumin levels were normalized to creatinine using QuantiChrom Creatinine Assay Kit (DICT-500) (BioAssay Systems, Hayward, Calif.) as instructed.
Transmission electron microscopy. Transmission electron microscopy was performed as described previously (Cosgrove et al., 2000, Am J Pathol; 157: 1649-1659).

[2] = tested on: primary cultured mesangial cells; experiment: Transwell Migration Assay of primary mesangial cells with TAE226; type: cell-based, mouse; settings: 0.5 μM TAE226; relative to untreated cells
Experimental: MES Migration (insert). Transwell cell migration assays were performed as described by Daniel et al. (Daniel et al., 2012, Lab Invest; 92(6): 812-26) with some modifications. 8 micron, 24-well plate control inserts (BD Bioscience, Bedford, Mass.) were coated overnight at 4° C. with 100 μl of 0.1% gelatin/PBS then washed 1× with PBS. MES cultures were incubated in 1% FCS overnight, then 0.05% BSA-containing media for at least 8 hours, washed 1× with PBS and carefully tryspinized to ensure a single cell suspension and limited “clumping” of cells. After serum-neutralization and subsequent centrifugation, ˜100,000 cells were resuspended in 1.5 mls of 0.05% BSA media containing activators/inhibitors. The wells of a 24-well plate were filled with 0.75 mls of 10% FCS-containing media plus activators/inhibitors (excluding 0.05% BSA control well). 0.5 ml of cell-suspension was loaded into the gelatin-coated insert and the insert placed in a well. Wells were visually inspected for bubbles beneath insert and equal distribution of cell-suspension. Cells were allowed to migrate overnight (˜18 hrs). […] Inserts were air dried and counted at 100× magnification. Five fields were counted on each insert including one center and four periphery areas. Data was expressed as relative to 10% FCS control well (set equal to one). […]

[3] = 50 mg/Kg daily, 2 to 7 weeks, relative to vehicle
[4] = at 6 weeks of age, relative to vehicle
[5] = by 7 weeks of age, relative to vehicle

CNC(=O)c1ccccc1Nc1nc(Nc2ccc(N3CCOCC3)cc2OC)ncc1Cl [TAE226]
pFAK immunostaining in podocytes in vivo ([1]; 50 mg/Kg 1× daily by gavage, two to seven weeks of age): abolished | Glomerular mRNA expression level of MMP-9 [1, 3]: significantly reduced | Glomerular mRNA expression level of MMP-10 [1, 3]: significantly reduced | Glomerular mRNA expression level of MMP-12 [1, 3]: significantly reduced | Monocytic infiltration (CD11b immunostaining) ([1]; 7 weeks of age): remarkably robust reduction | Renal scarring (fibronectin immunostaining) ([1]; 7 weeks of age): remarkably robust reduction | GBM architecture (transmission electron microscopy) ([1]; 7 weeks of age, relative to vehicle): markedly improved | Glomerulosclerosis ([1]; Alport mice): ameliorated | Blood urea nitrogen levels [1, 4]: significant reduction | Proteinuria [1, 4]: significant reduction | Blood urea nitrogen levels [1, 5]: loose significance | Proteinuria [1, 5]: loose significance | Mesangial process invasion of glomerular capillary loops ([1]; integrin α8 / laminin α5 immunostaining, vs vehicle): amelioration | Cell migratory potential of mesangial cells [2]: significantly reduced
